Experimental findings from US12522628B2, “Aryl glucoside derivative and use thereof in drug” (SHANGHAI ZHEYE BIOTECHNOLOGY CO. LTD., priority 2020, dated 2026) are described below.

The target in this assay is T1, SGLT1 (Homo sapiens, UniProt P13866).
T1 sequence (P13866 1-664): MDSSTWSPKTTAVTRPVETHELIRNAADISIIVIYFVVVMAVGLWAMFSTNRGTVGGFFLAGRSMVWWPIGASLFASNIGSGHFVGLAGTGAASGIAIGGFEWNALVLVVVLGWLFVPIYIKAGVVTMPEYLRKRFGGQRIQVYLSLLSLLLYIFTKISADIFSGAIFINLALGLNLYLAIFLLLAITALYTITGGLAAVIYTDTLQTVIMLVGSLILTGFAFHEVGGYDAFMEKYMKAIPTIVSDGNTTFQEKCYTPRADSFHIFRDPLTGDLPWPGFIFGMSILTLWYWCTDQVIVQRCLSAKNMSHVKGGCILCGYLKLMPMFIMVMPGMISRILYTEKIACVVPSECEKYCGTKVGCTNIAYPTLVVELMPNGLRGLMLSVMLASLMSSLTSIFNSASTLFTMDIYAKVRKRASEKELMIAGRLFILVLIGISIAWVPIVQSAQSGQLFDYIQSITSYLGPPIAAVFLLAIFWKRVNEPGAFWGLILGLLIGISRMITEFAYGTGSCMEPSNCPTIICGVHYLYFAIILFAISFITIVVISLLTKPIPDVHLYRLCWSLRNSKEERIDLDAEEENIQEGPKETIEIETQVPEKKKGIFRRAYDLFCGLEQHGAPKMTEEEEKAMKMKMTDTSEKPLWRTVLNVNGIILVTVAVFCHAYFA
The assay can be described thus: HSGLT1 inhibitor activity experiment: 2-NBDG uptake by HEK293 cells stably expressing human SGLT1. Type of assay: cell-based. The arrangement: expressed in transfected cells; host or cells: HEK293. Here is the method: Inhibitory activity testing was performed with reference to a similar method described in document (Acta Pharmaceutica Sinica 2017, 52(6):897-903; Nature Protocols (2007), 2(3), 753-762; Journal of Biochemical and Biophysical Methods (2005), 64(3), 207-215; Diabetes Technology & Therapeutics (2011), 13(7), 743-775).
In this experiment, the in vitro activity assay was evaluated using the uptake of 2-NBDG (2-Deoxy-2-[(7-nitro-2,1,3-benzoxadiazol-4-yl)amino]-D-glucose, CAS NO: 186689-07-6) by human embryonic kidney epithelial cells (HEK293, stably expressing human SGLT1), and the SGLT1 inhibitory activity of the target compound was determined by measuring its half-maximal inhibitory concentration (IC50).
HEK293 cells that can stably express human SGLT1 gene were inoculated into a 96-well clear-bottom black plates containing DMEM medium. The cells were incubated at 37° C., 5% CO2in a cell incubator. The medium in the 96-well plate was aspirated, and the plate was treated with low-glucose serum-free DMEM medium, and washed once with non-specific uptake buffer and once with Na^+-dependent uptake buffer. Uptake buffer containing test compound was added to each well of cells, followed by uptake buffer containing 2-NBDG for glucose uptake, and the cell plate was incubated at 37° C., 5% CO2. The compounds were gradiently diluted. The uptake reaction was stopped by removing the culture medium, and after washing the cells with ice-cold uptake buffer, the washing solution was removed. The cells were lysed by adding NaOH, and the content of 2-NBDG in the cells was detected by a fluorescence microplate reader. The protein concentration of the lysate was measured by BCA method, the uptake of 2-NBDG was quantified by fluorescence intensity/protein content, and the obtained data were analyzed using GraphPad Prism to determine the median inhibitory concentration (IC50) of the compound to be tested.

SMILES strings stand for the structures.

Take `C#CCN(C)CCNC(=O)CCCc1ccc(Cc2cc([C@@H]3O[C@H](SC)[C@@H](O)[C@H](O)[C@H]3O)ccc2C)cc1` [Example 5]: the “activity of inhibiting SGLT1 (in words)” value is recorded as “significant activity of inhibiting SGLT1”. Under “2-NBDG uptake, HEK293 stably expressing human SGLT1, read-out: SGLT1 Inhibitory Activity”, the IC50 was 0.37 nM.
